Source: paper PMC13388172 (Frontiers in Pharmacology, 2026)

Test: Therapeutic drug monitoring of serum ETI components and metabolites (UPLC-MS/MS), hourly for 9 hours after ingestion
Format: in vivo
Details: female, human, oral, full dose ETI, one pwCF, sampled hourly for 9 hours after ingestion, read-out: Area under the curve (AUC), serum
Protocol: The analytes of interest were assayed using an ultra-performance liquid chromatography tandem mass spectrometry method. In the concentration range from 0.01 to 20.0 mg/L, calibration curves were linear with a correlation coefficient >0.999 for all analytes.
Repeat TDM was conducted after a month on this reduced dosing strategy as this was felt likely to provide adequate time for steady-state concentrations to be achieved.

AUC: 92600 ng·h/mL
Structure (SMILES): CC(C)(CO)c1cc2cc(NC(=O)C3(c4ccc5c(c4)OC(F)(F)O5)CC3)c(F)cc2n1C[C@@H](O)CO [tezacaftor]
